Data taken from patent US20220031680A1, “Donecopride As Neuroprotective Agent In the Treatment of Neurodegenerative Diseases” (priority 2018, published 2022).

Tested on: C57Bl6/J mice challenged with an intracerebroventricular injection of Aβ1-42 oligomers (AβO)
Test: Novel Object Recognition assay in mice icv injected with AβO
Type: in vivo, mouse
Conditions: for mean discrimination index (NOR): day +16; for AβO-induced impairment of recognition memory (NOR): at all doses (1, 3, 9 mg/kg/day po)
Description: Briefly, 144 C57Bl6/J male mice (3 months of age) were received and housed (4 to 5 per cage) in quarantine during 7 days, or longer. Test items were dosed per os (through oral gavage) once daily at different concentrations from day −1 to day +17.
At days +15/+16, recognition memory was investigated using the Novel Object recognition test (NOR).
The different experimental groups are defined as follow: • GROUP A (vehicle CTRL): po vehicle AND icv injection of vehicle (n=12) • GROUP B (APO CTRL): po vehicle AND icv injection of AβO (n=12) • GROUP C (positive CTRL): po Donepezil subchronic AND icv injection of AβO (n=12) • GROUP D (Donecopride CTRL): po Donecopride (9 mg/kg) AND icv injection of vehicle (n=12) • GROUP E (Flucopride CTRL): po Flucopride (9 mg/kg) AND icv injection of vehicle (n=12) • GROUP F (Donecopride Treated): po Donecopride (1 mg/kg) AND icv injection of AβO (n=12) • GROUP G (Donecopride Treated): po Donecopride (3 mg/kg) AND icv injection of AβO (n=12) • GROUP H (Donecopride Treated): po Donecopride (9 mg/kg) AND icv injection of AβO (n=12) • GROUP I (Fluocopride Treated): po Flucopride (1 mg/kg) AND icv injection of AβO (n=12) • GROUP J (Flucopride Treated): po Flucopride (3 mg/kg) AND icv injection of AβO (n=12) • GROUP K (Flucopride Treated): po Flucopride (9 mg/kg) AND icv injection of AβO (n=12) • GROUP L (positive CTRL): ip Donepezil acute on test days AND icv injection of AβO (n=12)
For per os dosing, Donecopride and Flucopride were formulated by solubilization in 0.9% NaCl. Compound dosing (total volume of 200 μL) started one day before induction of the disease (through icv injection of AβO) and was done for 19 consecutive days.
Single intra-cerebroventricular injection of 144 mice with vehicle or APO (max. 24 mice per day, all mice randomized): under anesthesia (ip injection of a mixture of ketamine/xylasine at a dose of 110 and 15 mg/kg, respectively) AβO (1 μL), or vehicle (1 μL) were injected into the right lateral ventricle. Injections were made using 10 μL Hamilton micro syringes fitted with a 26-gauge needle. The procedure was terminated by a subcutaneous injection of metacam (analgesia) at a dose of 5 mg/kg. Animals were then placed individually in their home-cage and the cage was placed in a heated cabinet until the animal has fully recovered. Animals were carefully monitored to control recovery after anesthesia.
Preparation of APO: Aβ1-42 was obtained from Bachem (ref H1368) (batch number: 1052301). The preparation of stable Aβ1-42 oligomers was performed as described in Garcia et al. (2010) J. Neurosci. 30:7516-7527. The oligomeric preparation (identified as Batch #2016-14) contained a mixture of stable trimers and tetramers of Aβ1-42, as well as monomeric forms of the peptide. All oligomer preparations used were previously characterized in terms of oligomer composition and in vitro neurotoxicity.
6 independent trials involving each 24 mice (i.e. 2 mice from each experimental group) for a total of 144 mice at day +4—Behavioral tests were performed 1 h after dosing.
Detailed protocol: One day before the cognitive test (i.e. at day +15), mice are habituated during a 10 minutes' trial during which they are placed in an empty open field. The day of the cognitive test (i.e. day +16), animals are placed in the same open field and are allowed to explore freely two identical objects for a trial of five minutes (acquisition trial). Then the animals are returned in their home-cage for an inter-trial time of five minutes. During the retention trial, animals are allowed to explore two different objects: one familiar and one novel object. During this time, the experimenter, blind to the treatment, record the time the mouse is actively exploring each object. All trials are video recorded (Smart v3.0 software, Bioseb). A discrimination index is then generated: Discrimination index=(time exploring novel object−time exploring familiar object)/total exploration time. […]

| SMILES | mean discrimination index (NOR) (ip acute on test day, icv AβO (Group L)) | mean discrimination index (NOR) (po sub-chronic, icv AβO (Group C)) | mean discrimination index (NOR) (3 mg/kg/day po, icv AβO) | mean discrimination index (NOR) (9 mg/kg/day po, icv vehicle) | AβO-induced impairment of recognition memory (NOR) (icv AβO) | mean discrimination index (NOR) (9 mg/kg/day po, icv AβO) |
| --- | --- | --- | --- | --- | --- | --- |
| COc1cc2c(cc1OC)C(=O)C(CC1CCN(Cc3ccccc3)CC1)C2 (centres unmarked) [Donepezil, reference compound] | 0.30±0.07 | 0.29±0.09 | – | – | – | – |
| COc1cc(N)c(F)cc1C(=O)CCC1CCN(CC2CCCCC2)CC1 [Flucopride] | – | – | 0.46±0.05 | 0.36±0.06 | dose-dependent inhibition (bell-shaped curve) | – |
| COc1cc(N)c(Cl)cc1C(=O)CCC1CCN(CC2CCCCC2)CC1 [Donecopride] | – | – | – | 0.29±0.04 | dose-dependent inhibition | 0.43±0.06 |
